Laboratory results published in US5770201A, “HA-2 antigenic peptide” (Rijsuniversiteit Te Leiden, priority 1994, dated 1998).
Where no end group is shown, it is not given here.

Tested on: T2 cell line for lysis by clone 5H17
Assay: 51Cr release assay: peptide sensitization of T2 for lysis by HA-2 specific CTL clone 5H17
Assay type: cell-based, human
Details: T2 cells

YXGEVXVSV (X: residue not identified in the source) [synthetic peptide mixture, X stands for L or I]
HA-2 specific sensitizing CTL activity (lysis of T2): resulted in lysis of T2
